# Results reported in ChEMBL document CHEMBL5143721, “Novel Hydroxychalcone-Based Dual Inhibitors of Aldose Reductase and α-Glucosidase as Potential Therapeutic Agents against Diabetes Mellitus and Its Complications” (J Med Chem, 2022).
# Active and inactive are the calls of the source. No cut-off for these calls is given here.
# Columns and labels:
# Rattus norvegicus [1] = experiment: Antidiabetic activity against STZ-induced diabetic Sprague-Dawley rat model assessed as reduction in fasting blood glucose level at 80 mg/kg, IG administered once daily for 28 days; assay type: functional; design: scale not given: the % may be the effect or the level left; conditions: time 28 day
# Rattus norvegicus [2] = experiment: Antidiabetic activity against 12 hrs fasted STZ-induced diabetic Sprague-Dawley rat model assessed as reduction in AUC of blood glucose at 80 mg/kg, IG administered once daily for 28 days followed by maltose addition after 30 mins post cpd treatment and measured after 30 mins post maltose treatment; assay type: functional; design: scale not given: the % may be the effect or the level left
# [3] = Antioxidant activity assessed as DPPH radical scavenging activity at 5 uM incubated for 30 mins by DPPH assay relative to control; assay type: functional
# [4] = In vivo inhibition of ALR2 in STZ-induced diabetic Sprague-Dawley rat model assessed as reduction in sorbitol accumulation in lens at 80 mg/kg, IG administered once daily for 28 days by colorimetric assay relative to control; assay type: functional; design: scale not given: the % may be the effect or the level left; conditions: time 28 day
# [5] = In vivo inhibition of ALR2 in STZ-induced diabetic Sprague-Dawley rat model assessed as reduction in ALR2 activity in lens at 80 mg/kg, IG administered once daily for 28 days relative to control; assay type: functional; design: scale not given: the % may be the effect or the level left; conditions: time 28 day
# Rattus norvegicus [6] = experiment: Antidiabetic activity against STZ-induced diabetic Sprague-Dawley rat model assessed as reduction in fasting blood glucose level at 160 mg/kg, IG administered once daily for 28 days; assay type: functional; design: scale not given: the % may be the effect or the level left; conditions: time 28 day
# Rattus norvegicus [7] = experiment: Antidiabetic activity against STZ-induced diabetic Sprague-Dawley rat model assessed as reduction in triglycerides level in liver at 80 mg/kg, IG administered once daily for 28 days relative to control; assay type: functional; design: scale not given: the % may be the effect or the level left; conditions: time 28 day
# Rattus norvegicus [8] = experiment: Antioxidant activity against STZ-induced diabetic Sprague-Dawley rat model assessed as reduction in MDA level at 80 to 160 mg/kg, IG administered once daily for 28 days relative to control; assay type: functional, organism-based; conditions: dose 80-160 mg/kg, time 28.0 day
# Rattus norvegicus [9] = experiment: Antidiabetic activity against STZ-induced diabetic Sprague-Dawley rat model assessed as reduction in triglycerides level in liver at 160 mg/kg, IG administered once daily for 28 days relative to control; assay type: functional; design: scale not given: the % may be the effect or the level left; conditions: time 28 day
# Rattus norvegicus [10] = experiment: Antioxidant activity against STZ-induced diabetic Sprague-Dawley rat model assessed as reduction in GSH level at 160 mg/kg, IG administered once daily for 28 days relative to control; assay type: functional; design: scale not given: the % may be the effect or the level left; conditions: time 28 day
# Rattus norvegicus [11] = experiment: Antioxidant activity against STZ-induced diabetic Sprague-Dawley rat model assessed as reduction in GSH level at 80 mg/kg, IG administered once daily for 28 days relative to control; assay type: functional; design: scale not given: the % may be the effect or the level left; conditions: time 28 day
# HEK-293T = experiment: Cytotoxicity against HEK293T cells at 15 to 200 micromol/L by MTT assay; assay type: toxicity, cell-based; conditions: human, dose 15-200 µmol/L
# Rattus norvegicus [12] = experiment: Antidiabetic activity against STZ-induced diabetic Sprague-Dawley rat model assessed as reduction in total cholesterol level in serum at 160 mg/kg, IG administered once daily for 28 days relative to control; assay type: functional; design: scale not given: the % may be the effect or the level left; conditions: time 28 day
# [13] = Antioxidant activity assessed as DPPH radical scavenging activity at 100 uM incubated for 30 mins by DPPH assay relative to control; assay type: functional
# Brain [14] = experiment: Antioxidant activity in rat brain homogenate assessed as inhibition of lipid peroxidation by measuring MDA concentration at 50 uM by TBARS assay relative to control; assay type: functional, tissue-based; design: scale not given: the % may be the effect or the level left
# Rattus norvegicus [15] = experiment: Antidiabetic activity against STZ-induced diabetic Sprague-Dawley rat model assessed as reduction in total cholesterol level in liver at 80 mg/kg, IG administered once daily for 28 days relative to control; assay type: functional; design: scale not given: the % may be the effect or the level left; conditions: time 28 day
# Brain [16] = experiment: Antioxidant activity in rat brain homogenate assessed as inhibition of lipid peroxidation by measuring MDA concentration at 1 uM by TBARS assay relative to control; assay type: functional, tissue-based; design: scale not given: the % may be the effect or the level left
# Rattus norvegicus [17] = experiment: Antidiabetic activity against STZ-induced diabetic Sprague-Dawley rat model assessed as increase in liver glycogen levels at 160 mg/kg, IG administered once daily for 28 days; assay type: functional; conditions: time 28 day
# [18] = In vivo inhibition of ALR2 in STZ-induced diabetic Sprague-Dawley rat model assessed as reduction in sorbitol accumulation in red blood cells at 80 mg/kg, IG administered once daily for 28 days by colorimetric assay relative to control; assay type: functional; design: scale not given: the % may be the effect or the level left; conditions: time 28 day
# Brain [19] = experiment: Antioxidant activity in rat brain homogenate assessed as inhibition of lipid peroxidation by measuring MDA concentration at 100 uM by TBARS assay relative to control; assay type: functional, tissue-based; design: scale not given: the % may be the effect or the level left
# [20] = Antioxidant activity assessed as DPPH radical scavenging activity at 10 uM incubated for 30 mins by DPPH assay relative to control; assay type: functional
# [21] = In vivo inhibition of ALR2 in STZ-induced diabetic Sprague-Dawley rat model assessed as reduction in sorbitol accumulation in red blood cells at 160 mg/kg, IG administered once daily for 28 days by colorimetric assay relative to control; assay type: functional; design: scale not given: the % may be the effect or the level left; conditions: time 28 day
# [22] = Inhibition of Wistar rat kidney ALR1 using sodium D-glucuronate as substrate preincubated for 10 mins in presence of NADPH followed by substrate addition and measured after 4 mins; assay type: tissue-based
# Rattus norvegicus [23] = organism: Rattus norvegicus; experiment: Selectivity index, ratio of IC50 for Wistar rat kidney ALR1 to IC50 for Wistar rat lens ALR2
# [24] = Octanol/buffer distribution coefficient, log D of compound at pH 7.4 incubated for 24 hrs by shake flask based HPLC method; assay type: physicochemical
# Rattus norvegicus [25] = experiment: Antidiabetic activity against STZ-induced diabetic Sprague-Dawley rat model assessed as reduction in total cholesterol level in serum at 80 mg/kg, IG administered once daily for 28 days relative to control; assay type: functional; design: scale not given: the % may be the effect or the level left; conditions: time 28 day
# Rattus norvegicus [26] = experiment: Antidiabetic activity against STZ-induced diabetic Sprague-Dawley rat model assessed as reduction in total cholesterol level in liver at 160 mg/kg, IG administered once daily for 28 days relative to control; assay type: functional; design: scale not given: the % may be the effect or the level left; conditions: time 28 day
# [27] = Antioxidant activity assessed as DPPH radical scavenging activity at 50 uM incubated for 30 mins by DPPH assay relative to control; assay type: functional
# [28] = In vivo inhibition of ALR2 in STZ-induced diabetic Sprague-Dawley rat model assessed as reduction in ALR2 activity in lens at 160 mg/kg, IG administered once daily for 28 days relative to control; assay type: functional; design: scale not given: the % may be the effect or the level left; conditions: time 28 day
# Rattus norvegicus [29] = experiment: Antioxidant activity against STZ-induced diabetic Sprague-Dawley rat model assessed as reduction in SOD level at 160 mg/kg, IG administered once daily for 28 days relative to control; assay type: functional; design: scale not given: the % may be the effect or the level left; conditions: time 28 day
# Rattus norvegicus [30] = experiment: Antidiabetic activity against STZ-induced diabetic Sprague-Dawley rat model assessed as reduction in triglycerides level in serum at 80 mg/kg, IG administered once daily for 28 days relative to control; assay type: functional; design: scale not given: the % may be the effect or the level left; conditions: time 28 day
# Brain [31] = experiment: Antioxidant activity in rat brain homogenate assessed as inhibition of lipid peroxidation by measuring MDA concentration at 5 uM by TBARS assay relative to control; assay type: functional, tissue-based; design: scale not given: the % may be the effect or the level left
# Rattus norvegicus [32] = experiment: Antioxidant activity against STZ-induced diabetic Sprague-Dawley rat model assessed as reduction in SOD level at 80 mg/kg, IG administered once daily for 28 days relative to control; assay type: functional; design: scale not given: the % may be the effect or the level left; conditions: time 28 day
# Rattus norvegicus [33] = experiment: Antidiabetic activity against STZ-induced diabetic Sprague-Dawley rat model assessed as reduction in triglycerides level in serum at 160 mg/kg, IG administered once daily for 28 days relative to control; assay type: functional; design: scale not given: the % may be the effect or the level left; conditions: time 28 day
# Rattus norvegicus [34] = experiment: Antidiabetic activity against 12 hrs fasted STZ-induced diabetic Sprague-Dawley rat model assessed as reduction in blood glucose level at 160 mg/kg, IG administered once daily for 28 days followed by glucose addition after 30 mins post cpd treatment and measured after 30 mins post glucose treatment by oral glucose tolerance test; assay type: functional, organism-based; conditions: time 673.0 hrs
# [35] = In vivo inhibition of ALR2 in STZ-induced diabetic Sprague-Dawley rat model assessed as reduction in sorbitol accumulation in lens at 160 mg/kg, IG administered once daily for 28 days by colorimetric assay relative to control; assay type: functional; design: scale not given: the % may be the effect or the level left; conditions: time 28 day
# [36] = Inhibition of Wistar rat lens ALR2 using D,L-glyceraldehyde as substrate preincubated for 10 mins in presence of NADPH followed by substrate addition and measured after 4 mins; assay type: tissue-based
# Brain [37] = experiment: Antioxidant activity in rat brain homogenate assessed as inhibition of lipid peroxidation by measuring MDA concentration at 10 uM relative to control; assay type: functional, tissue-based; design: scale not given: the % may be the effect or the level left
# [38] = Antioxidant activity assessed as DPPH radical scavenging activity at 1 uM incubated for 30 mins by DPPH assay relative to control; assay type: functional
structure (smiles),measurement,setting,value
C[C@H]1O[C@H](O[C@H]2[C@H](O)[C@@H](O)[C@@H](O[C@H]3[C@H](O)[C@@H](O)C(O)O[C@@H]3CO)O[C@@H]2CO)[C@H](O)[C@@H](O)[C@@H]1N[C@H]1C=C(CO)[C@@H](O)[C@H](O)[C@H]1O (stereo not given in full) [ACARBOSE],Activity,Rattus norvegicus [1],16.2%
same,Activity,Rattus norvegicus [2],22.35%
COC(=O)Cn1c(=O)oc2c(C(=O)/C=C/c3ccc(O)c(O)c3)cccc21,Activity,[3],89.4%
same,Activity,[4],41.7%
same,Activity,[5],60.8%
same,Activity,Rattus norvegicus [6],30.4%
same,Activity,Rattus norvegicus [1],20.5%
same,Activity,Rattus norvegicus [7],30.6%
same,Activity,Rattus norvegicus [8],Active
same,Activity,Rattus norvegicus [9],33.8%
same,Activity,Rattus norvegicus [10],52.3%
same,Activity,Rattus norvegicus [11],26.8%
same,Activity,HEK-293T,Non-Toxic
same,Activity,Rattus norvegicus [12],44.1%
same,Activity,[13],97.5%
same,Activity,Brain [14],91.6%
same,Activity,Rattus norvegicus [15],32.1%
same,Activity,Brain [16],35.8%
same,Activity,Rattus norvegicus [17],36.58%
same,Activity,[18],59.7%
same,Activity,Brain [19],97.5%
same,Activity,[20],94.9%
same,Activity,[21],64.7%
same,IC50,[22],6.22 µM
same,Ratio IC50,Rattus norvegicus [23],54.6
same,logD at 24 h,[24],0.86
same,Activity,Rattus norvegicus [25],46%
same,Activity,Rattus norvegicus [26],3.1%
same,Activity,[27],96.5%
same,Activity,[28],52.1%
same,Activity,Rattus norvegicus [29],81.3%
same,Activity,Rattus norvegicus [30],44%
same,Activity,Brain [31],60.5%
same,Activity,Rattus norvegicus [32],35.5%
same,Activity,Rattus norvegicus [33],56.5%
same,Activity,Rattus norvegicus [34],Active
same,Activity,[35],34.1%
same,IC50,[36],0.114 µM
same,Activity,Brain [37],77.5%
same,Activity,[38],41.2%
